Experiment [1] concerns the target T1, Acetylcholinesterase (Homo sapiens, UniProt P22303). The experiment is described as follows: Inhibition of human recombinant AChE using acetylthiocholine iodide as substrate after 20 mins preincubation by Ellman method. For orientation: DTNB colorimetry detects thiols as they appear.
Experiment [2] has as its target T1, Acetylcholinesterase. The experiment is described as follows: Inhibition of human recombinant AChE-induced amyloid beta (1-40) aggregation assessed as fibril formation after 24 hrs by thioflavin T-based fluorometric assay.

Molecules are shown by their SMILES.

T1 sequence (P22303 whole entry): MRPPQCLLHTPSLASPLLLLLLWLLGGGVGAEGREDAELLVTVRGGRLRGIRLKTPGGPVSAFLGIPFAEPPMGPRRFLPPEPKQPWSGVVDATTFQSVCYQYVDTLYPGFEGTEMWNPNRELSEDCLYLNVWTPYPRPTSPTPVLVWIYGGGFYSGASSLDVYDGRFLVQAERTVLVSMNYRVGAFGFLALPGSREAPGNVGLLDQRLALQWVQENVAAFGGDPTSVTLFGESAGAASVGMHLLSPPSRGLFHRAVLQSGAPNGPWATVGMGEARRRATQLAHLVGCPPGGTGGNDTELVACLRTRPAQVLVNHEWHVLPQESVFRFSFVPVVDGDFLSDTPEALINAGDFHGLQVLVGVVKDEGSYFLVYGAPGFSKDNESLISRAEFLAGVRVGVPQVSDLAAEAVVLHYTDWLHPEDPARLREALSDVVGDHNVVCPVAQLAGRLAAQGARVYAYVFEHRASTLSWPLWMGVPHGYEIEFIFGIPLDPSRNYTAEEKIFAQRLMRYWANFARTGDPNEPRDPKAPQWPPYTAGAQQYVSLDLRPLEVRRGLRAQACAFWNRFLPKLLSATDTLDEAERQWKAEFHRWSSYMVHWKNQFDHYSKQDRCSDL

`CCN(CCCCCC=Nc1cc(O)c2ccccc2c1O)Cc1ccccc1OC`: the IC50 at Acetylcholinesterase [1] and on Acetylcholinesterase [2] was 45 µM each time.

These data come from BindingDB's records for doi:10.1021/jm200691d (University of Bologna, 2011).
